EC50 data for one compound are collected here from BindingDB's records for doi:10.1016/j.bmc.2020.115818 (Taisho Pharmaceutical, 2020).

SMILES strings stand for the structures.

The test can be described thus: Inhibition of F protein in Respiratory syncytial virus A2 infected in HepG2 cells assessed as reduction in virus-induced cytopathic effect incubated for 4 days by XTT assay.

One may read the EC50 as the concentration needed to bring the measured effect to its halfway point. For `Cc1ccc2c(c1)C(=O)N1CCCC[C@H]1c1cc3nc([C@H]4C[C@H](O)C4)cc(n3n1)N(C)CCNC(=O)CO2`, the concentration giving a half-maximal response (EC50) was 0.77 nM.
